Data published in patent publication US7560479B2 (priority 2003, dated 2009).

Legend:
[1] = target: T1, M2 muscarinic receptor subtype (Rattus norvegicus, UniProt P10980); assay: biochemical; assay type: binding
T1 construct: Submandibular glands and heart were isolated and placed in ice cold homogenising buffer; from tissue; host or cells: rat heart membrane homogenate
T1 sequence (P10980 1-466): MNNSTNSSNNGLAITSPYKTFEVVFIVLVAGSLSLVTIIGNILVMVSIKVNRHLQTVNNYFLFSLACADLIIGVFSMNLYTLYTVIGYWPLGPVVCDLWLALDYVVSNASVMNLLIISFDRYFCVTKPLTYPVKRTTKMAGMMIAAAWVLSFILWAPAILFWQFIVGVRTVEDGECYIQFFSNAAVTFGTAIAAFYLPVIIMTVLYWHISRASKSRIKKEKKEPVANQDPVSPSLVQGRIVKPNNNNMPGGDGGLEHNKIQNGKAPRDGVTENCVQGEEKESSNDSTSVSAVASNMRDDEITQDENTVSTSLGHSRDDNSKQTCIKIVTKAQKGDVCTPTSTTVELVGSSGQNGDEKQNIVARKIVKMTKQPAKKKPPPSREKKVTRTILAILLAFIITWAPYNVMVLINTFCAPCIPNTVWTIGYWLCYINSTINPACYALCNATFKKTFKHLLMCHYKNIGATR

[2] = target: T2, M3 muscarinic receptor subtype (Rattus norvegicus, UniProt P08483); assay: biochemical; assay type: binding
T2 construct: Submandibular glands and heart were isolated and placed in ice cold homogenising buffer; from tissue; host or cells: rat submandibular gland membrane homogenate

[3] = test system: isolated rat bladder; assay: tissue or blood; assay type: cell-based; conditions: read-out: Functional Assay pkB

T2 sequence (P08483 whole entry): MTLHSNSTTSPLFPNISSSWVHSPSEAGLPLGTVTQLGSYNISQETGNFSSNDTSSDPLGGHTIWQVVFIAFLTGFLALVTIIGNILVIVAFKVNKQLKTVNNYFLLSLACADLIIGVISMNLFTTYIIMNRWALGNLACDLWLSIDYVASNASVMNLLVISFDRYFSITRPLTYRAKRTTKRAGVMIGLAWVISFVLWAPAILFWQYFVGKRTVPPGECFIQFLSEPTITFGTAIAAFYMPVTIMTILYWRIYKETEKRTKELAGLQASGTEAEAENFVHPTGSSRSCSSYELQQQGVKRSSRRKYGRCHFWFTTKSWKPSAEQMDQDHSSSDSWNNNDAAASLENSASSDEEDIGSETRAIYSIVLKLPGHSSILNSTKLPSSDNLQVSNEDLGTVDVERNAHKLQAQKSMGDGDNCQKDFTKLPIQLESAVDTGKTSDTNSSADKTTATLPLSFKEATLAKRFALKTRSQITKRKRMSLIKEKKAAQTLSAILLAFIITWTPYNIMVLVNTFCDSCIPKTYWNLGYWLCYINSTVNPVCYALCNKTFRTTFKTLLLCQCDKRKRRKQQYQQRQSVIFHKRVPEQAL

Row | Compound | Ki [1] | Ki [2] | Kb [3]
1 | CC(C)=CCCN1C[C@@H]2[C@H](C1)[C@H]2NC(=O)[C@@](O)(c1ccccc1)C1CCC(F)(F)C1 (single isomer, unassigned) [Compound 13B, (2S)-(1α, 5α, 6α)-6-N-[3-(4-methyl-3-pentenyl)-3-azabicyclo[3.1.0]-hexyl-2-[(1R or 1S)-3,3-difluorocyclopentyl]-2-hydroxy-2-phenylacetamide] | > 10000 nM | 2000 nM | 67.6 nM
2 | CC(C)=CCCN1CC2C(C1)C2NC(=O)C(O)(c1ccccc1)C1CCC(F)(F)C1 (single isomer, unassigned) [Compound 14, (2R)-(1α, 5α, 6α)-6-N-[3-(4-methyl-3-pentenyl)-3-azabicyclo[3.1.0]-hexyl]-2-[(1R or 1S)-3,3-difluorocyclopentyl]-2-hydroxy-2-phenylacetamide] | > 10000 nM | 1580 nM | 132 nM
3 | O=C(N[C@H]1[C@@H]2CN(CCc3ccc4c(c3)OCO4)C[C@@H]21)[C@](O)(c1ccccc1)C1CCC(F)(F)C1 (stereo partly drawn) [Compound 9, (2R)-(1α, 5α, 6α)-6-N-[3-(2-(3,4-methylenedioxyphenyl)ethyl]-3-azabicyclo[3.1.0]-hexyl]-2-[(1R or 1S)-3,3-difluorocyclopentyl]-2-hydroxy-2-phenylacetamide] | 4270 nM | 79.4 nM | –
4 | O=C(N[C@H]1[C@@H]2CN(CCc3ccc4c(c3)OCO4)C[C@@H]21)[C@@](O)(c1ccccc1)C1CCC(F)C1 (stereo partly drawn) [Compound 11, (2S)-(1α, 5α, 6α)-6-N-[3-(2-(3,4-methylenedioxyphenyl)ethyl]-3-azabicyclo[3.1.0]-hexyl]-2-[(1R or 1S, 3R or 3S)-3-fluorocyclopentyl]-2-hydroxy-2-phenylacetamide] | 6310 nM | 63.1 nM | –
